Reference: US6086849A, “Technetium-99m labeled peptides for imaging” (Diatide, Inc., priority 1995, dated 2000)

Tests used:
[1] = tested on: deep vein thrombus (femoral vein, embolization coil); assay: In vivo imaging of deep vein thrombosis in a canine model; design: species or system dog
From the text: Mongrel dogs (25-35 lb., fasted overnight) were sedated with a combination of ketamine and aceprozamine intramuscularly and then anesthetized with sodium pentobarbital intravenously. An 18-gauge angiocath was inserted in the distal half of the right femoral vein and an 8 mm Dacron®-entwinedstainless steel embolization coil (Cook Co., Bloomington Ind.) was placed in the femoral vein at approximately mid-femur in each animal. The catheter was removed, the wound sutured and the placement of the coil documented by X-ray. The animals were then allowed to recover overnight.
One day following coil placement, each animal was re-anesthetized, intravenous saline drips placed in each foreleg and a urinary bladder catheter inserted to collect urine. The animal was placed supine under a gamma camera which was equipped with a low-energy, all purpose collimator and photopeaked for Tc-99m. Images were acquired on a NucLear Mac computer system.
Tc-99m labeled P357 [(CH2 CO--YD.Apc.GDCGGCAcm GCAcm GGC.amide)2 -[BAT-BS]] [185-370 MBq (5-10 mCi) Tc-99m and 0.2-0.4 mg P357] was injected into one foreleg intravenous line at its point of insertion. The second line was maintained for blood collection. Anterior images over the legs were acquired for 500,000 counts or 20 min (whichever was shorter), at approximately 10-20 min, and at approximately 1, 2, 3 and 4 h post-injection. Following the collection of the final image, each animal was deeply anesthetized with pentobarbital. Two blood samples were collected on a cardiac puncture using a heparinized syringe followed by a euthanazing dose of saturated potassium chloride solution administered by intercardiac or bolus intravenous injection. The femoral vein containing the thrombus and samples of thigh muscle were then carefully dissected out. The thrombus was then dissected free of the vessel and placed in a pre-weighed test tube. The thrombus samples were then weighed and counted in a gamma well counter in the Tc-99m channel. Known fractions of the injected doses were counted as well.
Fresh thrombus weight, percent injected dose (%ID)/g in the thrombus and blood obtained just prior to euthanasia and thrombus/blood and thrombus/muscle ratios determined. Thrombus/background ratios were determined by analysis of the counts/pixel measured in regions-of-interest(ROI) drawn over the thrombus and adjacent muscle from computer-stored images.

atherosclerotic plaque = assay type: in vivo, New Zealand White rabbit
Procedure: Twenty-two New Zealand White (NZW) rabbits of both sexes and weighing 2-3 kg were divided into two groups. The control group consisted of 6 rabbits that were housed and fed commercial rabbit chow (Purina). Sixteen rabbits, the HC group, were fed a standardized, cholesterol-rich diet (rabbit chow mixed to a 1% w/w concentration of cholesterol) from seven weeks until 28 weeks of age. All animals were given water ad libitum.
Tc-99m labeled P215 ([BAT]RALVDTLKFVTQAEGAK.amide) was prepared as described above. Approximately 250-400 μg of peptide was labeled with 140-160 mCi of Tc-99m and prepared in unit doses of 7-8 mCi (12.5-20.0 μg/rabbit; 6-7 μg/kg) in 0.2 mL volume doses. Adult rabbits were dosed with Tc-99m labeled peptide intravenously in a lateral ear vein by slow bolus infusion (approximately 0.1 mL/min). A gamma camera fitted with a pin-hole collimator (5 mm aperture) and energy window set for Tc-99m and programmed to accumulate 500,000 counts or scan for a desired time. Shortly before imaging, animals were anesthetized with a mixture of ketamine and xylazine (5:1, 1 mL/kg intramuscularly).
Gamma camera images were collected at 40-45° just above the heart (left anterior oblique [LAO] view) to delineate the aortic arch and view the descending aorta. Images were acquired at 1 and 2 h and occasionally at 3 and 5 h after injection. Supplementary anesthesia was injected as needed prior to each image collection.
At 2.5 h (after a 2 h scan), animals were sacrificed with an intravenous dose of sodium pentobarbital. Upon necropsy, the aorta was removed and branching vessels dissected free from the aortic valve to the mid-abdominal region. Using a parallel hole collimator, the aorta was imaged ex corpora. Next, the aortae were opened longitudinally and stained with Sudan IV, thereby turning atherosclerotic plaque a deep red brick color. Lipid-free and uninjured aortic endothelium retains its normal, glistening white-pink appearance under these conditions.

[2] = Tc-99m labeled, i.v., tissues after final image (about 4 h), average ± SD

| Substance | % ID/g Thrombus ([1]; Tc-99m labeled, i.v., thrombus dissected after final image (about 4 h), average ± SD) | Thrombus/Blood ratio [1, 2] | Thrombus/Muscle ratio [1, 2] | Thrombus/Background ratio ([1]; counts/pixel in ROI over thrombus and adjacent muscle from images, Tc-99m labeled, i.v., n = 1) | Time to clearly established localization of thrombus ([1]; post-injection) | Time of first indications of labeled peptide uptake in images ([1]; post-injection, anterior view over hind legs of one dog (FIG. 4)) | Time to unequivocal localization in images ([1]; post-injection, one dog (FIG. 4), persisted until the end of the imaging period) | Persistence of thrombus localization ([1]; post-injection, with increasing contrast and focal definition) | Radioactivity accumulation in HC aortae imaged ex corpora (atherosclerotic plaque; HC-fed rabbits, aorta removed at 2.5 h) | Correlation of in vivo and ex corpora images with Sudan IV deposition patterns (atherosclerotic plaque; HC-treated rabbit aortae) | Imaging of atherosclerotic plaque (uptake) (atherosclerotic plaque; Tc-99m labeled) | Uptake in normal aortic tissue (atherosclerotic plaque; control (plaque-free) aortae) | Principal clearance pathway (atherosclerotic plaque; rabbit, in vivo) | Systemic clearance (atherosclerotic plaque; rabbit, in vivo, iv) |
| --- | --- | --- | --- | --- | --- | --- | --- | --- | --- | --- | --- | --- | --- | --- |
| (CH2 CO--YD.Apc.GDCGGCAcm GCAcm GGC.amide)2 -[BAT-BS] [Compound P357] | 0.016 ± 0.005 % ID/g | 5.6 ± 1.4 | 17 ± 4.7 | 2.3 | ≤ 1 h | 23 min | ≤ 71 min | ~4 h |  |  |  |  |  |  |
| [BAT]RALVDTLKFVTQAEGAK.amide [Compound P215] |  |  |  |  |  |  |  |  | greatest deposition in the region of the aortic arch | Positive correlations | high uptake | minimal uptake | hepatobiliary system | rapid systemic clearance |
